Measurements published in ChEMBL document CHEMBL3871290, “3-Cyano-6-(5-methyl-3-pyrazoloamino) pyridines (Part 2): A dual inhibitor of Aurora kinase and tubulin polymerization” (Bioorg Med Chem Lett, 2016).
Each block holds one molecule with its values, some of them ahead of it. The source made the active and inactive calls. No cut-off for these calls is given here.

Assays:
[1] = tested on: Cc1ccc(OCCNc2nc(Nc3cc(C)[nH]n3)cc(C)c2C#N)cn1; settings: Homo sapiens
Description: Activity at YES (unknown origin)

Sus scrofa = species: Sus scrofa; assay: Inhibition of pig brain tubulin polymerization at 10 uM in presence of GTP relative to control
Homo sapiens = species: Homo sapiens; assay: Inhibition of Aurora kinase (unknown origin) assessed as reduction in histone H3 phosphorylation at Ser10 residue
[2] = tested on: Cc1ccc(OCCNc2nc(Nc3cc(C)[nH]n3)cc(C)c2C#N)cn1; settings: Homo sapiens; remark: listed apart in the source
Description: Activity at cSRC (unknown origin)

HCT-116 [3] = assay: Antitumor activity against human HCT116 cells xenografted subcutaneously in mouse assessed as tumor growth inhibition at 30 mg/kg, po qd after 14 days; assay type: functional
HCT-116 [4] = assay: Antitumor activity against human HCT116 cells xenografted subcutaneously in mouse assessed as tumor growth inhibition at 100 mg/kg, po qd after 14 days; assay type: functional, organism-based

Tyrosine-protein kinase Yes (Homo sapiens), P07947, sequence (P07947 whole entry): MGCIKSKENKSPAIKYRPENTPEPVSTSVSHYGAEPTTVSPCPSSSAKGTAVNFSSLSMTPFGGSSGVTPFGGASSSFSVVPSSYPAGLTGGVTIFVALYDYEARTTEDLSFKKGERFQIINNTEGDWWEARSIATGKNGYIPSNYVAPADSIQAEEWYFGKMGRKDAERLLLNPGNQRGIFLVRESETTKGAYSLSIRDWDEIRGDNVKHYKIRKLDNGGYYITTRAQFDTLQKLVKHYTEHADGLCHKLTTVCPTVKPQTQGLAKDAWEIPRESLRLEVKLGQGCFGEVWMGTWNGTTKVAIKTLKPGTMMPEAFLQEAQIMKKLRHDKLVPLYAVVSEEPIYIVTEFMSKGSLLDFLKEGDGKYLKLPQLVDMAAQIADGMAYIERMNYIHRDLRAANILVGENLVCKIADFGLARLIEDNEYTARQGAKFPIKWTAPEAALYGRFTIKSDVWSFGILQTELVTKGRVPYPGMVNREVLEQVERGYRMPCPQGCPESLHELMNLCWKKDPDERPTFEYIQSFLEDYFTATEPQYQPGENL

Molecule: Tyrosine-protein kinase Yes (Homo sapiens), P07947
Km [1]: 45 µM

inhibition (Sus scrofa): 63% | inhibition (Homo sapiens): Active
Molecule: Cc1ccc(OCCNc2nc(Nc3cc(C)[nH]n3)cc(C)c2C#N)cn1

Molecule: Proto-oncogene tyrosine-protein kinase Src (Homo sapiens) (from UniProt P12931)
Km [2]: 200 µM

Molecule: Cc1cc(Nc2cc(N3CCN(C)CC3)nc(Sc3ccc(NC(=O)C4CC4)cc3)n2)n[nH]1
TGI (HCT-116 [3]): 60% | TGI (HCT-116 [4]): 68%
